Laboratory results: US20240382600A1, “BIFUNCTIONAL DEGRADERS COMPRISING A TEAD BINDER” (Novartis AG, priority 2021, published 2024)

Experiments:
[1] = test system: YAP-dependent transcription in SF268-MCAT_Luc_dox-i-shYAPLevy (Clone 13) cells; assay: YAP reporter gene activity assay (MCAT-Luc), SF268; assay type: cell-based; conditions: Homo sapiens, SF-268; SF268 MCAT_Luc, 24 hrs
[2] = test system: NCI-H2052 Tet-On shYAP_2371 pLenti6 MCAT_Luc cells; assay: Proliferation assay (resazurin/AlamarBlue), NCI-H2052; assay type: cell-based; conditions: Homo sapiens; NCI-H2052, 72 hours
Text: (§1) NCI-H2052 mesothelioma cells (RRID: CVCL_1518) bearing Hippo-pathway inactivating mutations upstream of YAP (homozygous deletion of LATS2 and mutation of NF2) were obtained from ATCC (American Type Culture Collection), while SF268 glioma cells (RRID: CVCL_1689) overexpressing YAP due to genomic amplification were obtained from the NCI (National Cancer Institute). MKN-45 gastric adenocarcinoma cells (RRID: CVCL_0434) genomically deleted for YAP were obtained from the JCRB (Japanese Collection of Research Bioresources) Cell Bank.
(§2) Stock solutions of compounds were prepared at a concentration of 10 mM in DMSO and stored at 4° C. Where necessary to afford a full dose-response curve, the stock solutions were pre-diluted in DMSO to 1′000-fold the desired reduced start concentration. On the day after cell seeding, eleven 2-fold serial dilutions of each compound were dispensed directly into the cell assay plates using a HP 300D non-contact Digital Dispenser (TECAN). The final concentration of DMSO was normalized to 0.1% in all wells.
(§3) After incubation for 72 hours at 37° C., compound-mediated modulation of cell viability was quantified as follows. […] To enable differentiation of cytotoxic from cytostatic compound effects, the number of viable cells on the day of compound addition (day 0) was assessed in a separate cell plate and used to assess the extent of cell viability suppression as described in the following section.
(§4) For data analysis, the assay background value determined in wells containing medium, but no cells, was subtracted from all data points.
(§5) The extent of growth inhibition and potential cell kill was assessed by comparing the resorufin levels in compound-treated cells with those present at the time of compound addition. To this end, the following conditional concept was programmatically applied in HELIOS to calculate % growth (% G) for each compound-treated well: % G=(T−V0)/V0))*100 when T<V0, and % G=(T−V0)/(V−V0)))*100 when T≥V0, where V0 is the viability level at time of compound addition, while V and T represent vehicle-control and compound-treated viability levels, respectively, at the end of the compound incubation. 100%, 0% and −100% signify absence of growth inhibition, growth stasis, and complete cell kill, respectively. Compound concentrations leading to half-maximal growth inhibition (GI50) and residual cell viability at the highest tested compound concentration (Data(cmax), expressed in percent) were routinely calculated.

[3] = test system: YAP-dependent transcription in NCI-H2052 Tet-On shYAP_2371 pLenti6 MCAT_Luc cells; assay: YAP reporter gene activity assay (MCAT-Luc), NCI-H2052; assay type: cell-based; conditions: Homo sapiens, 24 hrs
[4] = test system: SF268-MCAT_Luc_dox-i-shYAPLevy (Clone 13) cells; assay: Proliferation assay (resazurin/AlamarBlue), SF268; assay type: cell-based; conditions: Homo sapiens, SF-268; SF268, 72 hours
Text: as §1, §2, §3, §4, §5

[5] = molecular target: TEAD1-GFP in HEK293A cells (Homo sapiens (Human), UniProt P28347); assay: TEAD1 protein abundance flow cytometry assay in HEK293A; assay type: cell-based; conditions: HEK293A TEAD1-GFP-CHYSEL-mCherry sensor cells, 24 h, GFP signal by flow cytometry
Procedure: Degradation of TEAD1 was measured in HEK293A cells (Invitrogen R70507) expressing TEAD1-GFP and mCherry from a stably integrated bicistronic TEAD1-GFP-CHYSEL-mCherry construct. Reduction of the GFP signal measured by flow cytometry served as readout for TEAD1 degradation after degrader treatment.
Stable HEK293A sensor cells were maintained in complete growth medium (DMEM high Glucose+10% FCS+1% L-Glutamine+1% NEAA+1% NaPyr.+4 μg/mL blasticidin) with passaging performed twice per week. On Day 0, stable HEK293A sensor cells were seeded at 5,000 cells/well in a 96-well microtiter plate in 100 μL complete medium. On Day 1, cells were treated in duplicate with 10-point 1:3 dilution series of compound using the HP D300 Digital Dispenser (Tecan). DMSO concentrations were normalized across the plate to 0.1%. On Day 2, after 24 h of incubation at 37° C., treatment media was discarded, cells rinsed with 100 μL/well PBS and then detached using 40 μL trypsin/well for 5 min. Trypsin was neutralized with 100 μL/well PBS+20% FCS).
Flow cytometry was performed on the samples using the CytoFlex S (Beckman Coulter). Cell identification was then performed using forward (FSC) vs. side scatter (SSC) plots. Single cell discrimination was performed using SSC-Width (SSC-W) vs. SSC-Height (SSCH) plots. Median GFP values for 2,500 single cells were used to determine TEAD1 levels. Median GFP values from HEK293A were used as a background signal and thus defining 0% TEAD1 signal. Median GFP values from DMSO treated HEK293A TEAD1-GFP CHYSEL-mCherry were used to define 100%
TEAD1 signal for subsequent DC50 curves (concentration at 50% TAED1 degradation). GFP and RFP were read in the channels called FITC and PE, respectively. Concentration response curves plotting relative reduction of the GFP signal (measured by flow cytometry) versus 10 compound concentrations (starting concentration 10 μM, 3 fold dilution steps) of the compounds allowed generation of DC50 values.

[6] = test system: MKN-45/Ubc-luc cells (unspecific inhibition of luciferase expression or activity); assay: Reporter gene assay specificity control (Ubc-Luc), MKN-45; assay type: cell-based; conditions: Homo sapiens; MKN-45/Ubc-luc specificity control, 24 hrs
Text: as §1
As a specificity control, MKN-45 cells were stably transduced with a Ubc-Luc reporter construct, in which constitutive expression of firefly luciferase is driven by the promoter of the ubiquitin C housekeeping gene. The resulting cell line, MKN-45/Ubc-luc, was selected and maintained in growth medium (RPMI 1640 (Amimed Cat #1-41F01-I), 2 mM L-Glutamine (Amimed Cat #5-10K50-H), 10% fetal calf serum (Amimed Cat #2-01F30-I Lot K08815P), 1% MEM Non-essential amino acids (Amimed Cat #5-13K00-H), 1× Penicillin/Streptomycin (Amimed Cat #4-01F00-H)) containing 1 μg/ml blasticidin (Gibco Cat #A11139-03).
as §2
The ability of compounds to inhibit YAP-dependent transcription was assessed in NCI-H2052 Tet-On shYAP_2371 pLenti6 MCAT_Luc and SF268-MCAT_Luc, dox-i-shYAPLevy (Clone 13) cells, while specificity (lack of unspecific inhibition of luciferase expression or activity) was assessed in MKN-45/Ubc-luc cells. The individual cell lines were seeded at 2′500 cells/20 μl/well into white-wall, clear-bottom 384-well plates (Greiner, Cat #781098) and incubated over night at 37° C. prior to addition of serial compound dilutions as described above. Following incubation for 24 hrs at 37° C., compound-mediated modulation of reporter-gene activity was quantified 5 min after addition 20 μL […] BrightGlo (Promega Cat #E2620), by measuring luminescence intensity on a multi-mode plate-reader (TECAN) with an integration time of 100 ms.
as §4

[7] = molecular target: Avi-humanTEAD4^217-434 / Cy5 labeled humanYAP^60-100 (Homo sapiens (Human), UniProt Q15561); assay: In-vitro biochemical TR-FRET assay (TEAD4/YAP); assay type: binding; conditions: 1 h at room temperature
Procedure: N-terminus Cy5 labeled humanYAP^60-100 (20 nM) was then added to this preparation. Compounds were dissolved at 10 mM in 100% DMSO and serial dilutions were made in 100% DMSO. The diluted compound solutions were incubated in white 384-well plates (Greiner Bio-One) for 1 h at room temperature with the above described mix. The final DMSO concentration present in the assay was 1%. […] The IC50 values were estimated by fitting the data by nonlinear fit regression (GraphPad Prism).

MKN-45/Ubc-luc cells = assay: Proliferation assay (resazurin/AlamarBlue), MKN-45; assay type: cell-based; conditions: Homo sapiens; MKN-45, 72 hours
Text: as §1
As a specificity control, MKN-45 cells were stably transduced with a Ubc-Luc reporter construct, in which constitutive expression of firefly luciferase is driven by the promoter of the ubiquitin C housekeeping gene.
as §2, §3, §4, §5

TEAD1-GFP in HEK293A cells, sequence (P28347 whole entry): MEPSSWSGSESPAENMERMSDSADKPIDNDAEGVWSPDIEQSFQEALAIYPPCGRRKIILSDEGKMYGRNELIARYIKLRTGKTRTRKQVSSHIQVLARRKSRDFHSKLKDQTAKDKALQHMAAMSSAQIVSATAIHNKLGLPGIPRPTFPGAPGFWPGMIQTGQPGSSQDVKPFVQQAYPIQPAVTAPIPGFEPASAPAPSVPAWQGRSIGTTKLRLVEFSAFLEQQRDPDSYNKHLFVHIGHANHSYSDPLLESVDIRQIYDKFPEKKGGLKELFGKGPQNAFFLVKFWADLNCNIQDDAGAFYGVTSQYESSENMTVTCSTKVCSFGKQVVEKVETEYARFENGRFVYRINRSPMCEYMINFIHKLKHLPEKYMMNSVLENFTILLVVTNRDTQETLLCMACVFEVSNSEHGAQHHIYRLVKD
Avi-humanTEAD4^217-434 / Cy5 labeled humanYAP^60-100, sequence (Q15561 217-434): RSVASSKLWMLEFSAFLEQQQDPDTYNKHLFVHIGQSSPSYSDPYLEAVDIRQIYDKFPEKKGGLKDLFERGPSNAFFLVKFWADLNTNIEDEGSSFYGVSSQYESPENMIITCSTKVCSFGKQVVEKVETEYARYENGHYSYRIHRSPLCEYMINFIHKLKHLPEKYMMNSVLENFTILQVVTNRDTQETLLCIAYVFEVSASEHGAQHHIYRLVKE

`CN[C@@H](C)C(=O)N[C@H](C(=O)N1C[C@@H](NCC(=O)N[C@H]2CC[C@H](NC(=O)[C@H]3CC[C@H](NC[C@]4(c5ccccc5)Oc5cc(F)c(Cl)c(-c6c(C(N)=O)ccc(OC)c6F)c5[C@@H]4C)CC3)CC2)C[C@H]1C(=O)N[C@@H]1CCCc2ccccc21)C1CCCCC1` (atropisomer, axis not shown) [Example 44, (2S,4S)-4-((2-(((1S,4S)-4-((1S,4S)-4-((((2S,3S,4S)-4-(6-carbamoyl-2-fluoro-3-methoxyphenyl)-5-chloro-6-fluoro-3-methyl-2-phenyl-2,3-dihydrobenzofuran-2-yl)methyl)amino)cyclohexane-1-carboxamido)cyclohexyl)amino)-2-oxoethyl)amino)-1-((S)-2-cyclohexyl-2-((S)-2-(methylamino)propanamido)acetyl)-N-((R)-1,2,3,4-tetrahydronaphthalen-1-yl)pyrrolidine-2-carboxamide] showed an IC50 [1] of 1.9 nM, a GI50 [2] of 670 nM and an IC50 [3] of 630 nM. The GI50 [4] was 1300 nM, the DC50 [5] was 2800 nM and the IC50 [6] was > 2000 nM. The IC50 [7] was 2.3 nM and the GI50 (MKN-45/Ubc-luc cells) was > 2000 nM.
Work on `COc1ccc(C(N)=O)c(-c2c(Cl)c(F)cc3c2[C@H](C)[C@@](CN[C@H]2CC[C@H](C(=O)NCCCCCc4cccc5c4CN(C4CCC(=O)NC4=O)C5=O)CC2)(c2ccccc2)O3)c1F` (stereo partly drawn) [Example 31, 2-((2S,3S,4S)-5-chloro-2-((((1r,4S)-4-((5-(2-(2,6-dioxopiperidin-3-yl)-1-oxoisoindolin-4-yl)pentyl)carbamoyl)cyclohexyl)amino)methyl)-6-fluoro-3-methyl-2-phenyl-2,3-dihydrobenzofuran-4-yl)-3-fluoro-4-methoxybenzamide] yielded an IC50 [1] of 0.28 nM, a GI50 [2] of 6.6 nM and an IC50 [3] of 1.9 nM. The GI50 [4] was 19 nM, the DC50 [5] was 0.6 nM and the IC50 [6] was > 20000 nM. For the same molecule, the IC50 [7] was 1.8 nM and the GI50 (MKN-45/Ubc-luc cells) was > 20000 nM.
With `COc1ccc(C(N)=O)c(-c2c(Cl)c(F)cc3c2[C@H](C)[C@@](CN[C@H]2CC[C@H](C(=O)N4CCC(OC5CCN(C(=O)c6ccc(Cl)c(N7CCC(=O)NC7=O)c6)CC5)CC4)CC2)(c2ccccc2)O3)c1F` (atropisomer, axis not shown) [Example 13, 2-((2S,3S,4S)-5-chloro-2-((((1r,4S)-4-(4-((1-(4-chloro-3-(2,4-dioxotetrahydropyrimidin-1(2H)-yl)benzoyl)piperidin-4-yl)oxy)piperidine-1-carbonyl)cyclohexyl)amino)methyl)-6-fluoro-3-methyl-2-phenyl-2,3-dihydrobenzofuran-4-yl)-3-fluoro-4-methoxybenzamide] the IC50 [1] was 0.49 nM, the GI50 [2] was 13 nM and the IC50 [3] was 4.5 nM. The GI50 [4] was 23 nM, the DC50 [5] was 0.5 nM and the IC50 [6] was > 2000 nM. For the same molecule, the IC50 [7] was 1.8 nM and the GI50 (MKN-45/Ubc-luc cells) was > 2000 nM.
With `COc1ccc(C(N)=O)c(-c2c(Cl)c(F)cc3c2[C@H](C)[C@@](CN[C@H]2CC[C@H](C(=O)N4CCC(CC5CCN(C(=O)c6ccc(Cl)c(N7CCC(=O)NC7=O)c6)CC5)CC4)CC2)(c2ccccc2)O3)c1F` (atropisomer, axis not shown) [Example 24, 2-((2S,3S,4S)-5-chloro-2-((((1r,4S)-4-(4-((1-(4-chloro-3-(2,4-dioxotetrahydropyrimidin-1(2H)-yl)benzoyl)piperidin-4-yl)methyl)piperidine-1-carbonyl)cyclohexyl)amino)methyl)-6-fluoro-3-methyl-2-phenyl-2,3-dihydrobenzofuran-4-yl)-3-fluoro-4-methoxybenzamide] the IC50 [1] was 0.2 nM, the GI50 [2] was 3.5 nM and the IC50 [3] was 1 nM. For the same molecule, the GI50 [4] was 6.2 nM, the DC50 [5] was < 0.3 nM and the IC50 [6] was > 2000 nM. For the same molecule, the IC50 [7] was 3.4 nM and the GI50 (MKN-45/Ubc-luc cells) was > 2000 nM.
`COc1ccc(C(=O)N2CCC(OC3CCN(CCNC(=O)[C@H]4CC[C@H](NC[C@]5(c6ccccc6)Oc6cc(F)c(Cl)c(-c7c(C(N)=O)ccc(OC)c7F)c6[C@@H]5C)CC4)CC3)CC2)cc1N1CCC(=O)NC1=O` (atropisomer, axis not shown) [Example 4, 2-((2S,3S,4S)-5-chloro-2-((((1r,4S)-4-((2-(4-((1-(3-(2,4-dioxotetrahydropyrimidin-1(2H)-yl)-4-methoxybenzoyl)piperidin-4-yl)oxy)piperidin-1-yl)ethyl)carbamoyl)cyclohexyl)amino)methyl)-6-fluoro-3-methyl-2-phenyl-2,3-dihydrobenzofuran-4-yl)-3-fluoro-4-methoxybenzamide] was tested, and the IC50 [1] was 1.7 nM, the GI50 [2] was 140 nM and the IC50 [3] was 49 nM. For the same molecule, the GI50 [4] was 33 nM, the IC50 [6] was > 20000 nM and the IC50 [7] was 1.1 nM. For the same molecule, the GI50 (MKN-45/Ubc-luc cells) was > 20000 nM.
